The source made the active and inactive calls.
Experiments:
[1] = target: T1, PKC alpha and beta-2 (Homo sapiens) (UniProt P17252+P05771); assay: Inhibition of PKC alpha/beta-2 phosphorylation in human NCI-H460 cells at 50 uM after 24 hrs by Western blot analysis in presence of PKC promoter PMA, JNK inhibitor SP600125; format: cell-based
NCI-H460 [2] = assay: Cell cycle arrest in human NCI-H460 cells assessed as accumulation at sub-G1 phase after 1 hr by propidium iodide staining-based flow cytometric analysis; format: functional
A549 [3] = assay: Cytotoxicity against human A549 cells assessed as cell viability after 24 hrs by XTT assay; format: functional, cell-based; details: A549, 24 h
NCI-H460 [4] = assay: Cell cycle arrest in human NCI-H460 cells assessed as accumulation at sub-G1 phase at 50 uM after 24 hrs by propidium iodide staining-based flow cytometric analysis in presence of PKC promoter PMA, JNK inhibitor SP600125; format: functional
NCI-H460 [5] = assay: Cell cycle arrest in human NCI-H460 cells assessed as accumulation at sub-G1 phase at 50 uM after 1 hr by propidium iodide staining-based flow cytometric analysis (reference value: 2.2%); format: functional
NCI-H460 [6] = assay: Induction of apoptosis in human NCI-H460 cells assessed as caspase-3 cleavage at 50 uM after 24 hrs by Western blot analysis in presence of PKC promoter PMA, JNK inhibitor SP600125; format: functional, cell-based
NCI-H460 [7] = assay: Induction of apoptosis in human NCI-H460 cells assessed as downregulation of cyclin D1 protein expression at 12.5 to 50 uM after 24 hrs by Western blot analysis; format: functional, cell-based
NCI-H460 [8] = assay: Induction of apoptosis in human NCI-H460 cells assessed as downregulation of Bcl-xL protein expression at 12.5 to 50 uM after 24 hrs by Western blot analysis; format: functional, cell-based
NCI-H460 [9] = assay: Induction of apoptosis in human NCI-H460 cells assessed as DNA fragmentation after 24 hrs by DAPI staining-based TUNEL assay; format: functional, cell-based
A549 [10] = assay: Cell cycle arrest in human A549 cells assessed as accumulation at sub-G1 phase at 50 uM after 1 hr by propidium iodide staining-based flow cytometric analysis; format: functional
NCI-H460 [11] = assay: Induction of apoptosis in human NCI-H460 cells assessed as PARP cleavage at 12.5 to 50 uM after 24 hrs by Western blot analysis; format: functional, cell-based
NCI-H460 [12] = assay: Induction of apoptosis in human NCI-H460 cells assessed as downregulation of cyclin E protein expression at 12.5 to 50 uM after 24 hrs by Western blot analysis; format: functional, cell-based
NCI-H460 [13] = assay: Cytotoxicity against human NCI-H460 cells assessed as cell viability after 24 hrs by XTT assay; format: functional, cell-based; details: NCI-H460, 24 h
NCI-H460 [14] = assay: Cell cycle arrest in human NCI-H460 cells assessed as accumulation at sub-G1 phase at 12.5 uM after 1 hr by propidium iodide staining-based flow cytometric analysis (reference value: 2.2%); format: functional
[15] = target: Protein kinase C delta type (Homo sapiens) (UniProt Q05655); assay: Induction of PKC-delta phosphorylation in human NCI-H460 cells at 12.5 to 50 uM after 24 hrs by Western blot analysis; format: cell-based
[16] = target: c-Jun N-terminal kinase, JNK (Homo sapiens) (UniProt P45983+P53779+P45984); assay: Induction of c-Jun N-terminal kinase phosphorylation in human NCI-H460 cells at 12.5 to 50 uM after 24 hrs by Western blot analysis; format: cell-based
A549 [17] = assay: Induction of apoptosis in human A549 cells assessed as PARP cleavage at 12.5 to 50 uM after 24 hrs by Western blot analysis; format: functional, cell-based
NCI-H460 [18] = assay: Induction of apoptosis in human NCI-H460 cells assessed as activation of caspase 9/3 at 12.5 to 50 uM after 24 hrs by Western blot analysis; format: functional, cell-based
NCI-H460 [19] = assay: Inhibition of ERK phosphorylation in human NCI-H460 cells at 12.5 to 50 uM after 24 hrs by Western blot analysis; format: cell-based
[20] = target: T1, PKC alpha and beta-2 (Homo sapiens); assay: Inhibition of PKC alpha/beta-2 phosphorylation in human NCI-H460 cells at 12.5 to 50 uM after 24 hrs by Western blot analysis; format: cell-based
NCI-H460 [21] = assay: Induction of apoptosis in human NCI-H460 cells assessed as downregulation of Bcl-2 protein expression at 12.5 to 50 uM after 24 hrs by Western blot analysis; format: functional, cell-based
NCI-H460 [22] = assay: Induction of apoptosis in human NCI-H460 cells assessed as PARP cleavage at 50 uM after 24 hrs by Western blot analysis in presence of PKC promoter PMA, JNK inhibitor SP600125; format: functional, cell-based

T1 sequence (P05771 whole entry, looked up): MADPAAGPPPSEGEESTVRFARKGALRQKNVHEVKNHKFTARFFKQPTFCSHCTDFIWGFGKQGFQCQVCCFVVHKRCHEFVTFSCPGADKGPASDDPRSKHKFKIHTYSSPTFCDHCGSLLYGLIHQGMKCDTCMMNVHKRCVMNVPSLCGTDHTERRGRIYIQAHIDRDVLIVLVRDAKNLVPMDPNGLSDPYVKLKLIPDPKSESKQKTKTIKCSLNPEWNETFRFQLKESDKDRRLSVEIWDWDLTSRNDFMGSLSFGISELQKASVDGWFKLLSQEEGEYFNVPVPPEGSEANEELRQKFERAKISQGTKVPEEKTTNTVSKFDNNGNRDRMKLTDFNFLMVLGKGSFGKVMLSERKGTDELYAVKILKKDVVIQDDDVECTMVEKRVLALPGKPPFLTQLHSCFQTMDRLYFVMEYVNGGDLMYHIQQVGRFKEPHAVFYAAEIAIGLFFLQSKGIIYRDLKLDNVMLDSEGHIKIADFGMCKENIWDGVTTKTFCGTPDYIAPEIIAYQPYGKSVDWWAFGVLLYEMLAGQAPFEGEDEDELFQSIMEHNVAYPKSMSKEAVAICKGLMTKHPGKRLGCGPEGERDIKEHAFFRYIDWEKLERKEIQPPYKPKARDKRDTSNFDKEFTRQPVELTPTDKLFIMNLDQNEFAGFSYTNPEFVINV
Chain of Protein kinase C delta type (Homo sapiens) (Q05655 whole entry, looked up): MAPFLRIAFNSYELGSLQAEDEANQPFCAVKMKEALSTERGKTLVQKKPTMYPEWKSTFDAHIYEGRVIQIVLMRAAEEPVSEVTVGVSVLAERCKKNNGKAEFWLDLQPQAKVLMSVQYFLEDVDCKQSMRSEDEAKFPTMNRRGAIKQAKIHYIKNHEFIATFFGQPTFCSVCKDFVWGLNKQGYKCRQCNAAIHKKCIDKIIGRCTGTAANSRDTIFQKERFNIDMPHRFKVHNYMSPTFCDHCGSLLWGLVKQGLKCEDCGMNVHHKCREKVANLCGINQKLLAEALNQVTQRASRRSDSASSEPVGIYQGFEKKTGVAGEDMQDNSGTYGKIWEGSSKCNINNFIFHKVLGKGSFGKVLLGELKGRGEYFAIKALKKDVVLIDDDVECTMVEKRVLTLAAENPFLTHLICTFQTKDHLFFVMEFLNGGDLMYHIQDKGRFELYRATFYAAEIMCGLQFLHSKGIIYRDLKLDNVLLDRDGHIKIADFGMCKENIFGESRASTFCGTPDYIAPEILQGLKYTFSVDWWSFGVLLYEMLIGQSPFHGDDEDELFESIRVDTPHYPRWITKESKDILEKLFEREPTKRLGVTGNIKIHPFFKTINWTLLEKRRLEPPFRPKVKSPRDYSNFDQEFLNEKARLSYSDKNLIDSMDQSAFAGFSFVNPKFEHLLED

CC1(C)[C@@H](O)CC[C@]2(C)[C@H]3C(=O)C=C4[C@@H]5C[C@@](C)(C(=O)O)CC[C@]5(C)CC[C@@]4(C)[C@]3(C)CC[C@@H]12 [ENOXOLONE]
78 µg/mL: IC50 (A549 [3])
40.1%: Activity (NCI-H460 [5])
2.8%: Activity (NCI-H460 [14])
active: Activity (NCI-H460 [2]) Dose-dependent effect | Activity (NCI-H460 [7]) | Activity (NCI-H460 [8]) | Activity (NCI-H460 [9]) Dose-dependent effect | Activity (A549 [10]) | Activity (NCI-H460 [11]) | Activity (NCI-H460 [12]) | Activity [15] | Activity [16] | Activity (A549 [17]) | Activity (NCI-H460 [18]) | inhibition (NCI-H460 [19]) | inhibition [20] | Activity (NCI-H460 [21])
62 µg/mL: IC50 (NCI-H460 [13])
inactive: inhibition [1] | Activity (NCI-H460 [4]) | Activity (NCI-H460 [6]) | Activity (NCI-H460 [22])
